Measured values reported in patent US20200199174A1, “NOVEL FLUORESCENT LABELING METHOD” (priority 2017, published 2020).

Key:
[1] = literature (Zheng et al. 2014); cited from earlier work
[2] = test system: 5D4 fusion protein with TagRFP in HEK293T cells; experiment: Expression test of anti-DNP scFv in cultured cells, fluorescent labeling of cytoplasm; assay type: cell-based; details: 1 μM, 10 minutes room temperature, washed with HBS, HEK293T cells expressing TagRFP-5D4
Description: HEK293T cells and HeLa cells were cultured in Dulbecco's Modified Eagle's Medium (DMEM, Wako) including 10% fetal bovine serum (FBS, SIGMA) at a carbon dioxide concentration of 5% and a temperature of 37° C.
Gene transfer into HeLa cells was performed using lipofection. For the HeLa cells under culture in a 24-well dish, 25 μL of Opti-MEM I (GIBCO) to which 0.5 μg of a plasmid had been added was added to a mixed solution of 2 μL of Lipofectamine 2000 (Invitrogen) and 25 μL of Opti-MEM I and incubated for five minutes at room temperature. This mixture was added to 500 μL of a medium 90-100% confluent with HEK293T cells and HeLa cells, and culturing was performed at 37° C. at a carbon dioxide concentration of 5%. Cell concentration was diluted to 1/10 5 to 8 hours after transfection, and cells were re-seeded on a glass dish. Cells were subjected to various imaging experiments after 24 hours had passed since transfection.
The 5D4 clone for which a fluorescence-increasing effect of the scFv on the fluorophore-DNP pair was observed was expressed in HEK293T cells as a fusion protein with the fluorescent protein TagRFP, and the state of expression of the scFv in the cells or the propriety of fluorescent labeling of cytoplasm by the fluorophore-DNP pair was evaluated. […]

[3] = test system: V94A mutant; experiment: Dissociation rate of alanine-scanning mutant and probe (competition experiments with DNP); assay type: binding, mouse
Description: (§1) An amino acid mutation was introduced into an MBP-scFv protein coding region by circular PCR with pMalc5E-5D4 as a template, using a thermostable polymerase KOD Plus (TOYOBO) and forward and reverse primers including a codon modified to correspond to the desired amino acid mutation. The resultant linear PCR product was circularized using a Ligation Kit Version 2 (TAKARA), and an MBP-scFv mutant expression construct was obtained.
(§2) A flow channel in a stopped-flow apparatus (Bio-logic) was filled with a pretreatment liquid in which 1% w/v gelatin was dissolved in a phosphate buffer solution (pH 7.4) (PBS), and blocking was performed by leaving the apparatus at room temperature for at least 30 minutes, after which the flow channel was thoroughly washed with Milli-Q water. Using the apparatus, PBS in which MBP-5D4 or a variant thereof at a concentration of 100 nM or less and a probe at a concentration of 1 μM were dissolved, and PBS in which 100 μM DNP as a competitive substance was dissolved were mixed at a 1:1 ratio, and a fluorescence change was measured. At this time, the excitation/fluorescence wavelengths used were 510 nm/529-556 nm for the DCF probe and 650 nm/672-712 nm for the SiR probe, and measurement was performed under conditions of a temperature of 25-27C. […]

[4] = test system: 5D4 (Y96F); experiment: Dissociation rate constant of anti-DNP scFv mutant and probe (stopped-flow, competition with DNP); assay type: binding, mouse
Description: as §1, §2

[5] = test system: MBP-5D4; experiment: Dissociation rate constant of anti-DNP scFv and probe (stopped-flow, competition with DNP); assay type: binding, mouse; details: 6DCF-DNP and 5D4
Description: A flow channel in a stopped-flow apparatus (Bio-logic) was filled with a pretreatment liquid in which 1% w/v gelatin was dissolved in a phosphate buffer solution (pH 7.4) (PBS), and blocking was performed by leaving the apparatus at room temperature for at least 30 minutes, after which the flow channel was thoroughly washed with Milli-Q water. Using the apparatus, PBS in which MBP-5D4 or a variant thereof at a concentration of 100 nM or less and a probe at a concentration of 1 μM were dissolved, and PBS in which 100 μM DNP as a competitive substance was dissolved were mixed at a 1:1 ratio, and a fluorescence change was measured. At this time, the excitation/fluorescence wavelengths used were 510 nm/529-556 nm for the DCF probe and 650 nm/672-712 nm for the SiR probe, and measurement was performed under conditions of a temperature of 25-27C. A dissociation rate constant koff was calculated by fitting the fluorescence intensity I(t) observed with respect to time t using formula (1) below (FIG. 13 and Table 1).
I(t)=c1·e^−k^off^t+c2·t+c3 Formula (1):
In the formula cn (n=1-3) is a constant.

[6] = test system: 5D4; experiment: Fluorescence change characteristics of fluorophore-DNP pair in presence and absence of 5D4; assay type: biochemical, mouse; details: recombinant 5D4 expressed/purified in E. coli
Description: The anti-DNP scFv was expressed and purified as a fusion protein of maltose-binding protein. Escherichia coli BL21 (DE3) was transformed with the pMalc5E vector (pMalc5E-scFv) into which the purification object scFv sequence was introduced, and was cultured overnight on an LB medium plate including 100 μg/mL of ampicillin. A single colony was picked up and cultured overnight in 5 mL of a liquid LB medium including 100 μg/mL of ampicillin, and 1 mL of the resultant culture liquid was transferred to 100 mL of LB medium including 100 μg/mL of ampicillin. Shake culturing was performed at 200 rpm and a temperature of 37° C. until an optical density at 600 nm of 0.8 was reached, and after shake culturing was performed for 30 minutes at 15° C., IPTG was added to give a final concentration of 0.5 mM, and shake culturing was continued overnight. The E. coli were recovered after culturing and were disrupted using a sonicator. […] An eluate was replaced with PBS, and yield was quantified by the Bradford method, after which the eluate was subjected to the measurements described below.
RNA was extracted from the hybridomas of the resultant four clones, and cDNA fragments of the variable regions of the light chains and heavy chains of monoclonal antibodies were obtained by reverse transcription. The cDNA fragments of the variable regions of the light chains and heavy chains were connected via a linker sequence by overlap PCR, and scFv constructs were constructed only from subclones (4E10 and 5D4) derived from wells 1E10 and 3B12, respectively. […] The nucleic acid sequence of the cDNA sequence coding for 5D4 was identified by sequencing (SEQ ID NO: 8), an amino acid sequence determined from the result thereof was analyzed using the IMGT database (http://www.imgt.org/), and a […] region was specified (FIG. 4).
This fluorescence characteristic is similar to that of Cy5 dye, which is widely used in fluorescence imaging in cells. In the presence of 5D4, the fluorescence intensity of 6SiR-DNP was increased by a factor of 98 relative to the fluorescence intensity thereof in the absence of 5D4 (FIG. 6B). When fluorescence quantum yield of 6SiR-DNP in a state in which 6SiR-DNP is bound to 5D4 was measured, the fluorescence quantum yield in the presence of an excess of 5D4 was 0.57. This value for the fluorescence quantum yield is large, and is equal to or greater than that of Cy5 (quantum yield=0.2-0.4) and Cy5.5 (quantum yield=0.24), which are also highly versatile fluorescent dyes in cell labeling experiments (Q. Zheng et al., Ultra-stable organic fluorophores for single-molecule research. Chem Soc Rev 43, 1044-1056 (2014).).

For `CCN1/C(=C/C=C/C=C/C2=[N+](CCCCCC(=O)O)c3ccc(S(=O)(=O)O)cc3C2(C)C)C(C)(C)c2cc(S(=O)(=O)[O-])ccc21` [Cy5], the quantum yield [1] is listed as 0.2-0.4.

In the case of `CC(=O)Oc1cc2c(cc1F)C1(OC(=O)c3ccc(C(=O)NCCOCCOCCNc4ccc([N+](=O)[O-])cc4[N+](=O)[O-])cc31)c1cc(F)c(OC(C)=O)cc1O2` [Probe 6OGdiac-DNP, 6-((2-(2-(2-((2,4-dinitrophenyl)amino)ethoxy)ethoxy)ethyl)carbamoyl)-2′,7′-difluoro-3-oxo-3H-spiro[isobenzofuran-1,9′-xanthene]-3′,6′-diyl diacetate], the “green fluorescence in cells” value [2] is reported as “confirmed only in the cytoplasm of TagRFP-positive HEK293T cells”.

With `O=C(NCCOCCOCCNc1ccc([N+](=O)[O-])cc1[N+](=O)[O-])c1ccc(C(=O)O)c(-c2c3cc(Cl)c(=O)cc-3oc3cc(O)c(Cl)cc23)c1` [Probe 6DCF-DNP, 2-(2,7-dichloro-6-hydroxy-3-oxo-3H-xanthene-9-yl)-4-((2-(2-(2-((2,4-dinitrophenyl)amino)ethoxy)ethoxy)ethyl)carbamoyl)benzoate] the dissociation rate ([3]; V94A mutant and 6DCF-DNP) was 0.31 s⁻¹, the “rate increase relative to the original rate” value ([3]; V94A mutant and 6DCF-DNP vs original 5D4) was 25 times and the dissociation rate ([4]; Y96F mutant) was 1.1 s⁻¹. The “dissociation rate made faster relative to original” value ([4]; Y96F mutant and 6DCF-DNP vs original 5D4) was 100 times and the “dissociation rate constant (koff) for a fluorescence-OFF state” value [5] was 0.014 s⁻¹.

For `CN(CC(=O)NCCOCCOCCNc1ccc([N+](=O)[O-])cc1[N+](=O)[O-])C(=O)c1ccccc1-c1c2cc(Cl)c(=O)cc-2oc2cc(O)c(Cl)cc12` [DCF-DNP, 2-(2,7-dichloro-6-hydroxy-3-oxo-3H-xanthene-9-yl)-N-(2-((2-(2-(2-((2,4-dinitrophenyl)amino)ethoxy)ethoxy)ethyl)amino)-2-oxoethyl)-N-methylbenzamide], the “increase in fluorescence intensity” value [6] was “about 10 times”.

In the case of Cy5.5, the quantum yield [1] is listed as 0.24.
